Patent US20060110781A1, “Cholesterol detection reagent” (RIKEN, priority 2002, published 2006)

System: NPC fibroblasts
Assay: Fate of cell surface fPEG-Chol, incorporation into meshwork structure
Conditions: for incorporation of fPEG-Chol into meshwork: inhibitor 5 μg/ml before 1 μM fPEG-Chol

SMILES	internalization of rhodamine dextran (5 μg/ml, 30 minutes, 1 mg/ml rhodamine dextran)	incorporation of fPEG-Chol into meshwork
C=C1[C@@H](C)[C@H]2[C@H](Cc3ccccc3)NC(=O)[C@]23OC(=O)/C=C/[C@H](O)CCC[C@@H](C)C/C=C/[C@H]3[C@@H]1O [cytochalasin B]	did not affect	meshwork structure was disappeared
C[C@H]1CCC/C=C/[C@@H]2C[C@H](O)C[C@H]2[C@H](O)/C=C/C(=O)O1 [Brefeldin A]	–	did not significantly affect
COC(=O)Nc1nc2ccc(C(=O)c3cccs3)cc2[nH]1 [nocodazole]	–	did not significantly affect
